Experimental data: publication PMC3997483, “Aminostyrylbenzofuran Directly Reduces Oligomeric Amyloid-β and Reverses Cognitive Deficits in Alzheimer Transgenic Mice” (PLoS ONE, 2014)

Assays:
[1] = in vitro; conditions: monkey, microsomes
[2] = test system: APP/PS1 TG mice; assay: Morris water maze, prophylactic trial; format: in vivo, mouse; conditions: TG mice
Description: Behavioral tests were performed in the following sequence: Y-maze (day 1), Morris water maze (day 4 to 12) and contextual fear conditioning (day 26 to 27). To reduce stress, contextual fear conditioning was carried out 2 weeks after the Morris water maze task. In the therapeutic trial, APP/PS1 TG mice were treated with KMS88009 (30 mg/kg/day) for 3 months from 9 to 12 months of age. Y-maze tests short-term spatial working memory. Y-maze is a 3-armed (40 L×10 W×12 H cm) horizontal maze in which the arms are symmetrically disposed at 120° angles from each other. Mice were placed at the end of one arm and allowed to move freely through the maze during a 5-min session. Arm entry was considered completed when the hind paws of the mouse were completely placed in the arm. Alternation was defined as successive entries into the 3 arms on overlapping triplet sets. The series of arm entries was recorded via video recorders. The percentage of alternation was defined according to the following equation: % alternation = [(number of alternations)/(total arm entries - 2)] ×100. Mice performing fewer than 7 alternations in 5 min were excluded from the subsequent analysis to accurately determine alternation scores. Morris water maze was used to measure spatial learning and memory. A stainless pool apparatus with a diameter of 120 cm was used. A clear escape platform (circle, 12×12 cm) was located 1.0 cm below (hidden) the water surface containing white nontoxic paint. The temperature of water was kept constant throughout the experiment (21±1°C). The visual cues, for mice to recognize the environment and direction, are placed on the walls around the pool. The training was consisted of 8 consecutive days of testing with 4 trials per day. When a mouse was located on the escape platform, it was permitted to remain on the platform for 15 sec. […] Then the subject was returned to its home cage and allowed to dry up after each trial. The platform location was kept constant and the starting position was varied. Each mouse was placed in the water with their nose pointing toward the wall at one of the starting points in a random manner. During each trial session, the time taken to find the hidden platform (latency) was recorded using a video camera-based Ethovision System (Nodulus, Nertherlands). On the 9th day, each mouse was tested on a probe trial. The platform was removed from pool and the mice were allowed to swim for 60 sec to search. Swimming time was recorded during mice were in the pool quadrant where the platform had been previously located. Mice, which float or jump from platform, were eliminated from the experiment since these responses may be incompatible with the behaviors needed to locate and learn the platform position. In addition, animals with difficulty in swimming were also excluded from this study. Fear conditioning task was measured to test the ability to learn and remember an association between an aversive experience and environmental cues. Contextual fear conditioning evaluation was performed using a fear-conditioning chamber (Courlbourn, USA) equipped with a computer-controlled fear conditioning system (FreActimetrics, USA). On the first day of training, each mouse was placed in the conditioning chamber and left to adjust for 2 min. Fear conditioning test was performed with conditional stimulus (CS) of sound (75 dB) for 20 sec followed by unconditional stimulus (US) of electric foot-shock (0.5 mA) for the last 2 sec in CS. After 1 min, the subject was returned to its home cage. After 24 hr, retention test was performed. […] Freezing response was measured without CS or US. Freezing behavior was defined as the complete absence of any movement except for respiration and heartbeat. Animals with no response to the foot-shock during training were excluded from the analysis. Data analyses including recordings of all behavioral responses were performed by keeping research colleagues blind.

[3] = test system: APP/PS1 TG mice; assay: Y-maze, prophylactic trial; format: in vivo, mouse; conditions: PO 100 mg/kg/day, 5 to 12 months of age

SMILES | half-life at 5 µM [1] | remaining at 1 h, 5 µM [1] | Latency (hidden platform) ([2]; Day 1, dose group +++ (100 mg/kg/day)) | Latency (hidden platform) ([2]; Day 2, dose group +++ (100 mg/kg/day)) | Latency (hidden platform) ([2]; Day 3, dose group +++ (100 mg/kg/day)) | Latency (hidden platform) ([2]; Day 4, dose group +++ (100 mg/kg/day)) | Latency (hidden platform) ([2]; Day 5, dose group +++ (100 mg/kg/day)) | Latency (hidden platform) ([2]; Day 6, dose group +++ (100 mg/kg/day)) | Latency (hidden platform) ([2]; Day 7, dose group +++ (100 mg/kg/day)) | Latency (hidden platform) ([2]; Day 8, dose group +++ (100 mg/kg/day)) | frequency of spontaneous alternation (Y-maze) [3]
C[C@]12CC[C@H]3[C@@H](CCC4=CC(=O)CC[C@@]43C)[C@@H]1CC[C@@H]2O [Testosterone, reference compound] | 23.4 ± 0.5 min | 16 ± 0.4% |  |  |  |  |  |  |  |  | 
O[C@H]1[C@H](O)[C@@H](O)[C@H](O)[C@@H](O)[C@@H]1O [Scyllo-inositol, reference compound] |  |  | 49.1 ± 2.4 s | 43.1 ± 2.6 s | 44.7 ± 4.2 s | 37.5 ± 4.0 s | 44.6 ± 3.3 s | 39.0 ± 4.3 s | 38.4 ± 4.4 s | 37.2 ± 4.3 s | 70.0%
